Data on 13 compounds can be found in patent US11040028B2, “Penicinotam derivative, preparation method and use thereof” (OCEAN UNIVERSITY OF CHINA, priority 2017, dated 2021).

What all share (assay type): cell-based
In one test the test system is BHK-21 cells. Description: Anti-fibrosis activity test: inhibition of BHK-21 cell proliferation (CCK-8). As to conditions: Mesocricetus auratus, BHK-21, 48 h, CCK-8, 48 hours after administration. On the procedure:
(§1) BHK-21 cells in exponential growth phase were selected. After the fusion growth reached 85-95%, normal passage method was utilized to digest and collect the cells, followed by cell counting and adjusting the cell density to 2×10^4 cells/mL. The cells were seeded into 96-well plates, 100 μL/well, and were incubated under the condition of 5% CO2 at 37° C.
(§2) The supernatant was removed after the cells had adhered to the wall for 24 hours. The culture solution containing the prepared compounds at different concentrations were added to the wells, 100 μL/well, each concentration in triplicate. The cells were subcultured for 48 hours after administration. Commercially available pirfenidone was employed as the positive control.
(§3) 10 μL of CCK-8 solution ( 1/10 of the volume of the culture solution) was added to each well 48 hours after the administration, and incubated for 2 hours. The absorbance (A) of each well was determined by a microplate reader at 450 nm wavelength. The inhibition rate against cell proliferation for each compound was calculated based on A, wherein inhibition rate against cell proliferation (inhibition ratio, IR)=(1−value of experimental group (Ai)/value of blank control group (Ao))×100% and the IC50 value of each compound was calculated by the data processing software.

Test [1] deals with human lung fibroblasts HFL1. Description: Anti-fibrosis activity test: inhibition of proliferation of human lung fibroblasts HFL1 (CCK-8). The settings on record: Homo sapiens, HFL1, 48 h, human lung fibroblasts HFL1, CCK-8, 48 hours. On the procedure:
as §1, §2, §3
(§4) Using the same protocol for the cell experiments, the inhibitory activity of the test compounds against the proliferation of human lung fibroblasts HFL1, human hepatic stellate cells LX-2, human fibrosarcoma cells HT-1080, human dermal fibroblasts CCC-ESF-1, human embryonic lung fibroblast IMR-90, cardiac fibroblast RAT-iCell-C002 was assayed.

For test [2], the system named is human hepatic stellate cells LX-2. Description: Anti-fibrosis activity test: inhibition of proliferation of human hepatic stellate cells LX-2 (CCK-8). The settings on record: Homo sapiens, 48 h, human hepatic stellate cells LX-2, CCK-8, 48 hours. On the procedure: as §1, §2, §3, §4
Test [3] concerns human fibrosarcoma cells HT-1080. Description: Anti-fibrosis activity test: inhibition of proliferation of human fibrosarcoma cells HT-1080 (CCK-8). The settings on record: Homo sapiens, HT-1080, 48 h, human fibrosarcoma cells HT-1080, CCK-8, 48 hours. On the procedure:
as §1, §2, §3, §4

The subject of test [4] is human dermal fibroblasts CCC-ESF-1. Description: Anti-fibrosis activity test: inhibition of proliferation of human dermal fibroblasts CCC-ESF-1 (CCK-8). The settings on record: Fibroblast; human dermal fibroblasts CCC-ESF-1, CCK-8, 48 hours. On the procedure: as §1, §2, §3, §4
For test [5], the system named is human embryonic lung fibroblast IMR-90. Description: Anti-fibrosis activity test: inhibition of proliferation of human embryonic lung fibroblast IMR-90 (CCK-8). As to conditions: human embryonic lung fibroblast IMR-90, CCK-8, 48 hours. On the procedure: as §1, §2, §3, §4
Test [6] deals with cardiac fibroblast RAT-iCell-C002. Description: Anti-fibrosis activity test: inhibition of proliferation of cardiac fibroblast RAT-iCell-C002 (CCK-8). As to conditions: Cardiac fibroblast, 48 h, cardiac fibroblast RAT-iCell-C002, CCK-8, 48 hours. On the procedure:
as §1, §2, §3, §4

The term IC50 denotes the midpoint of a concentration-inhibition curve. Low readings indicate greater potency in that assay, high ones weaker potency in that assay. As for `N#Cc1cc2c(OCc3ccc(Cl)cc3)c3c(nc2cc1N1CCNCC1)-c1cccn1C3=O` [Compound 640b, 9-((4-chlorobenzyl)oxy)-10-oxo-6-(piperazin-1-yl)-10H-pyrrolizino[1,2-b]quinoline-7-carbonitrile], the IC50 (in the test with BHK-21 cells; in test [1]; in test [2]; in test [3]; in test [4]; in test [5]) was 0.05 to 5 mM throughout. In test [6], this compound showed an IC50 of 0.05 to 5 mM.

As to `N#Cc1ccc(Cn2c3c(c(=O)c4cc(C#N)c(N5CCNCC5)cc42)C(=O)n2cccc2-3)cc1` [Compound 641a, 4-(4-Cyanobenzyl)-9,10-dioxo-6-(piperazin-1-yl)-4,10-dihydro-9H-pyrrolizino[1,2-b]quinoline-7-carbonitrile], the IC50 (with BHK-21 cells; in test [1]; in test [2]; in test [3]; in test [4]; in test [5]) was 0.05 to 5 mM throughout. In addition, the IC50 in test [6] is 0.05 to 5 mM.

Regarding `N#Cc1ccc(COc2c3c(nc4cc(N5CCNCC5)c(C#N)cc24)-c2cccn2C3=O)cc1` [Compound 641b, 9-((4-cyanobenzyl)oxy)-10-oxo-6-(piperazin-1-yl)-10H-pyrrolizino[1,2-b]quinoline-7-carbonitrile], the IC50 (in the test with BHK-21 cells; in test [1]; in test [2]; in test [3]; in test [4]; in test [5]) was 0.05 to 5 mM in each case. In test [6], this compound displayed an IC50 of 0.05 to 5 mM.

Take `N#Cc1cc2c(=O)c3c(n(Cc4ccc(C(F)(F)F)cc4)c2cc1N1CCNCC1)-c1cccn1C3=O` [Compound 642a, 9,10-Dioxo-6-(piperazin-1-yl)-4-(4-(trifluoromethyl)benzyl)-4,10-dihydro-9H-pyrrolizino[1,2-b]quinoline-7-carbonitrile]: the IC50 in the test on BHK-21 cells is 0.05 to 5 mM; in test [1], 0.05 to 5 mM; in test [2], 0.05 to 5 mM; in test [3] it was 0.05 to 5 mM; in test [4], below 0.05 mM; in test [5], 0.05 to 5 mM. The same compound came in with an IC50 in test [6] of 0.05 to 5 mM.

On to `N#Cc1cc2c(OCc3ccc(C(F)(F)F)cc3)c3c(nc2cc1N1CCNCC1)-c1cccn1C3=O` [Compound 642b, 10-oxo-6-(piperazin-1-yl)-9-((4-(trifluoromethyl)benzyl)oxy)-10H-pyrrolizino[1,2-b]quinoline-7-carbonitrile], for which the IC50 (in the test with BHK-21 cells; in test [1]; in test [2]; in test [3]; in test [4]; in test [5]) was 0.05 to 5 mM in each case. In test [6], the IC50 is 0.05 to 5 mM.

`N#Cc1cc2c(=O)c3c(n(Cc4ccc(-c5ccccc5)cc4)c2cc1N1CCNCC1)-c1cccn1C3=O` [Compound 643a, 4-([1,1′-Biphenyl]-4-ylmethyl)-9,10-dioxo-6-(piperazin-1-yl)-4,10-dihydro-9H-pyrrolizino[1,2-b]quinoline-7-carbonitrile]: the IC50 in the test with BHK-21 cells is below 0.05 mM; in test [1] it was 0.05 to 5 mM; in test [2], 0.05 to 5 mM; in test [3], 5 to 20 mM; in test [4], 0.05 to 5 mM; in test [5] it was 0.05 to 5 mM. The compound also registered an IC50 in test [6] of 0.05 to 5 mM.

For the compound `N#Cc1cc2c(OCc3ccc(-c4ccccc4)cc3)c3c(nc2cc1N1CCNCC1)-c1cccn1C3=O` [Compound 643b, 9-([1,1′-biphenyl]-4-ylmethoxy)-10-oxo-6-(piperazin-1-yl)-10H-pyrrolizino[1,2-b]quinoline-7-carbonitrile], the IC50 in the test with BHK-21 cells was 0.05 to 5 mM; in test [1] it was 0.05 to 5 mM; in test [2], 0.05 to 5 mM; in test [3], below 0.05 mM; in test [4], 0.05 to 5 mM; in test [5] it was 0.05 to 5 mM. This compound also displayed an IC50 in test [6] of 0.05 to 5 mM.

Consider `N#Cc1ccccc1-c1ccc(Cn2c3c(c(=O)c4cc(C#N)c(N5CCNCC5)cc42)C(=O)n2cccc2-3)cc1` [Compound 644a, 4-((2′-Cyano-[1,1′-biphenyl]-4-yl)methyl)-9,10-dioxo-6-(piperazin-1-yl)-4,10-dihydro-9H-pyrrolizino[1,2-b]quinoline-7-carbonitrile], for which the IC50 (with BHK-21 cells; in test [1]; in test [2]; in test [3]; in test [4]; in test [5]) was 0.05 to 5 mM in each case. The compound further registered an IC50 in test [6] of 0.05 to 5 mM.

As for `N#Cc1ccccc1-c1ccc(COc2c3c(nc4cc(N5CCNCC5)c(C#N)cc24)-c2cccn2C3=O)cc1` [Compound 644b, 9-((2′-cyano-[1,1′-biphenyl]-4-yl)methoxy)-10-oxo-6-(piperazin-1-yl)-10H-pyrrolizino[1,2-b]quinoline-7-carbonitrile], the IC50 (in the test on BHK-21 cells; in test [1]; in test [2]; in test [3]; in test [4]; in test [5]) was 0.05 to 5 mM in each case. Moreover, in test [6], the IC50 lay in the range of 0.05 to 5 mM.

With `O=C1c2c(n(Cc3ccccc3Cl)c3cccc(Cl)c3c2=O)-c2cccn21` [Compound 645a, 8-Chloro-4-(2-chlorobenzyl)-9H-pyrrolizino[1,2-b]quinoline-9,10(4H)-dione], the IC50 with BHK-21 cells is 0.05 to 5 mM; in test [1] it was 0.05 to 5 mM; in test [2], 0.05 to 5 mM; in test [3], 0.05 to 5 mM; in test [4], below 0.05 mM; in test [5], 0.05 to 5 mM. In test [6], this compound showed an IC50 of 0.05 to 5 mM.

As to `O=C1c2c(nc3cccc(Cl)c3c2OCc2ccccc2Cl)-c2cccn21` [Compound 645b, 8-chloro-9-((2-chlorobenzyl)oxy)-10H-pyrrolizino[1,2-b]quinolin-10-one], the IC50 (in the test on BHK-21 cells; in test [1]; in test [2]; in test [3]; in test [4]; in test [5]) was 0.05 to 5 mM in each case. In test [6], this compound had a concentration for half-maximal inhibition (IC50) of 0.05 to 5 mM.

With `O=C1c2c(n(Cc3ccc(F)cc3)c3cc(N4CCNCC4)cc(F)c3c2=O)-c2cccn21` [Compound 646a, 8-Fluoro-4-(4-fluorobenzyl)-6-(piperazin-1-yl)-9H-pyrrolizino[1,2-b]quinoline-9,10(4H)-dione], the IC50 (with BHK-21 cells; in test [1]; in test [2]; in test [3]; in test [4]; in test [5]) was 0.05 to 5 mM throughout. For the same compound, the IC50 in test [6] fell in the range of 0.05 to 5 mM.

In the case of `O=C1c2c(nc3cc(N4CCNCC4)cc(F)c3c2OCc2ccc(F)cc2)-c2cccn21` [Compound 646b, 8-fluoro-9-((4-fluorobenzyl)oxy)-6-(piperazin-1-yl)-10H-pyrrolizino[1,2-b]quinolin-10-one], the IC50 (in the test on BHK-21 cells; in test [1]; in test [2]; in test [3]; in test [4]; in test [5]) was 0.05 to 5 mM in each case. The compound also showed an IC50 in test [6] of 0.05 to 5 mM.
